Data reported in patent US20240325398A1, “COMBINATION THERAPIES” (Infinity Pharmaceuticals, Inc., priority 2014, published 2024).

Columns and labels:
[1] = system: Jeko-1; assay: Combination study, ATPLite 72 h, dose matrix (Synergy Score, CI50); conditions: combination with Compound 1
[2] = system: U-2932; assay: as above; conditions: combination with Compound 1, 72 h
[3] = system: SU-DHL-4-epst; assay: as above; conditions: combination with Compound 1, 72 h
[4] = system: Farage; assay: as above; conditions: combination with Compound 1; Farage; 72 h
[5] = system: KARPAS-299; assay: as above; conditions: combination with Compound 1
Procedure: (§1) Cells are thawed from a liquid nitrogen preserved state. Once cells have been expanded and divide at their expected doubling times, screening begins. Cells are seeded in growth media in either black 1536-well or 384-well tissue culture treated plates. Cells are then equilibrated in assay plates via centrifugation and placed in incubators attached to the Dosing Modules at 37° C. for 24 hours before treatment. […] These Tzero (To) plates are read using ultra-sensitive luminescence on Envision plate readers (Perkin Elmer). Treated assay plates are incubated with compound for 72 hours. After 72 hours, plates are developed for endpoint analysis using ATPLite. All data points are collected via automated processes, quality controlled and analyzed using Zalicus software.
(§2) where T is treated cell count and V is untreated (vehicle) cell count (at 72 hours). I ranges from 0% (when T=V) to 100% (when T=0). […] The measure of effect in the experiment can be the inhibition of cellular response relative to the untreated level (vehicle alone). […] The inhibition ranges from 0% at the untreated level to 100% when T=0. Inhibition levels are negative for agents that actually increase levels. Other effect measures, such as an activity ratio r=T/V may be more appropriate for some assays. When activity ratios (e.g, fold increase over stimulated control) are being used, the effect can be measured using an induction 1=ln(T/V). With this definition, all effect expressions are the same as for inhibition.
(§3) Growth Inhibition (GI) is used as a measure of cell viability. […] A GI reading of 100% represents complete growth inhibition—T72 compound-treated and T0 vehicle signals are matched. […] A GI reading of 200% represents complete death of all cells in the culture well. Compounds reaching an activity plateau of GI 200% are considered cytotoxic. GI is calculated by applying the following test and equation:
(§4) Combination analysis data were collected in a 6×6 dose matrix. Synergy is calculated by comparing a combination's response to those of its single compound, against the drug-with-itself dose-additive reference model. Deviations from dose additivity may be assessed visually on an isobologram or numerically with a Combination Index (CI). […] Additive effect is CI=1.0. […] Antagonistic effect is CI>1.0.
(§5) To measure combination effects in excess of Loewe additivity, a scalar measure to characterize the strength of synergistic interaction termed the Synergy Score is devised. The Synergy Score is calculated as:
(§6) The fractional inhibition for each component agent and combination point in the matrix is calculated relative to the median of all vehicle-treated control wells. The Synergy Score equation integrates the experimentally-observed activity volume at each point in the matrix in excess of a model surface numerically derived from the activity of the component agents using the Loewe model for additivity. Additional terms in the Synergy Score equation (above) are used to normalize for various dilution factors used for individual agents and to allow for comparison of synergy scores across an entire experiment. The inclusion of positive inhibition gating or an Idata multiplier removes noise near the zero effect level, and biases results for synergistic interactions at that occur at high activity levels.
(§7) Loewe Volume (Loewe Vol) is used to assess the overall magnitude of the combination interaction in excess of the Loewe additivity model. Loewe Volume is particularly useful when distinguishing synergistic increases in a phenotypic activity (positive Loewe Volume) versus synergistic antagonisms (negative Loewe Volume). […] This model defines additivity as a non-synergistic combination interaction where the combination dose matrix surface should be indistinguishable from either drug crossed with itself.

[6] = system: GRANTA-519; assay: as above; conditions: combination with Compound 1
[7] = system: Mino; assay: as above; conditions: combination with Compound 1
[8] = system: OMP-2; assay: as above; conditions: combination with Compound 1; OPM-2
Procedure: as §1, §2, §3, §4, §5, §6, §7

[9] = as above; conditions: combination with Compound 1; OPM-2
Procedure: as §1, §2, §3, §4, §5, §6, §7

[10] = system: TMD8; assay: as above; conditions: combination with Compound 1; TMD8; 72 h
[11] = system: DOHH-2; assay: as above; conditions: combination with Compound 1, 72 h
Procedure: as §1
The measure of effect in the experiment can be the inhibition of cellular response relative to the untreated level (vehicle alone). […] The inhibition ranges from 0% at the untreated level to 100% when T=0. Inhibition levels are negative for agents that actually increase levels.
as §3, §4, §5, §6
(§8) Loewe Volume (Loewe Vol) is used to assess the overall magnitude of the combination interaction in excess of the Loewe additivity model. Loewe Volume is particularly useful when distinguishing synergistic increases in a phenotypic activity (positive Loewe Volume) versus synergistic antagonisms (negative Loewe Volume). […] This model defines additivity as a non-synergistic combination interaction where the combination dose matrix surface should be indistinguishable from either drug crossed with itself. The calculation for Loewe additivity is:

[12] = system: RPMI-8226; assay: as above; conditions: combination with Compound 1
[13] = system: NCI-H929; assay: as above; conditions: combination with Compound 1
[14] = system: HBL-1; assay: as above; conditions: combination with Compound 1, 72 h
[15] = system: OCI-Ly3; assay: as above; conditions: combination with Compound 1; OCI-Ly3; 72 h
Procedure: as §1, §2, §3, §4, §5, §6, §8

[16] = system: SU-DHL-10-epst; assay: as above; conditions: combination with Compound 1, 72 h
[17] = system: HH; assay: as above; format: cell-based; conditions: combination with Compound 1
Procedure: The method is described as follows.
Additive effect is CI=1.0. […] Antagonistic effect is CI>1.0.
The Synergy Score is calculated as: […]

[18] = system: OCI-Ly7; assay: as above; conditions: combination with Compound 1, 72 h
[19] = system: RL; assay: as above; conditions: combination with Compound 1, 72 h
[20] = system: WSU-NHL; assay: as above; conditions: combination with Compound 1, 72 h
[21] = system: KARPAS-422; assay: as above; conditions: combination with Compound 1, 72 h

SMILES: CN1CCc2c(c3ccccc3n2Cc2ccc(C(=O)NO)cc2)C1.Cl [Tubastatin A hydrochloride]
- CI50 growth inhibition [1]: W (W=≥1)
- CI50 inhibition [1]: W (W=≥1)
- Synergy Score growth inhibition [1]: A1 (A1=0.0001 to <1)
- Synergy Score inhibition [1]: A1 (A1=0.0001 to <1)
- CI50 growth inhibition [2]: U (U=0.7 to <1)
- Synergy Score growth inhibition [2]: A1 (A1=0.0001 to <1)
- Synergy Score inhibition [2]: A1 (A1=0.0001 to <1)
- CI50 growth inhibition [3]: T (T=0.5 to <0.7)
- CI50 inhibition [3]: S (S=0.01 to <0.5)
- Synergy Score growth inhibition [3]: A3 (A3=>3)
- Synergy Score inhibition [3]: A2 (A2=1 to <3)
- CI50 growth inhibition [4]: S (S=0.01 to <0.5)
- CI50 inhibition [4]: T (T=0.5 to <0.7)
- Synergy Score growth inhibition [4]: A3 (A3=>3)
- Synergy Score inhibition [4]: A2 (A2=1 to <3)
- Synergy Score growth inhibition [5]: A1 (A1=0.0001 to <1)
- Synergy Score inhibition [5]: A1 (A1=0.0001 to <1)
- CI50 growth inhibition [6]: S (S=0.01 to <0.5)
- CI50 inhibition [6]: W (W=≥1)
- Synergy Score growth inhibition [6]: A2 (A2=1 to <3)
- Synergy Score inhibition [6]: A1 (A1=0.0001 to <1)
- CI50 growth inhibition [7]: U (U=0.7 to <1)
- CI50 inhibition [7]: U (U=0.7 to <1)
- Synergy Score growth inhibition [7]: A2 (A2=1 to <3)
- Synergy Score inhibition [7]: A1 (A1=0.0001 to <1)
- Synergy Score growth inhibition [8]: A1 (A1=0.0001 to <1)
- Synergy Score inhibition [8]: A1 (A1=0.0001 to <1)
- CI50 growth inhibition [9]: W (W=≥1)
- CI50 growth inhibition [10]: U (U=0.7 to <1)
- CI50 inhibition [10]: U (U=0.7 to <1)
- Synergy Score growth inhibition [10]: A3 (A3=>3)
- Synergy Score inhibition [10]: A2 (A2=1 to <3)
- CI50 growth inhibition [11]: T (T=0.5 to <0.7)
- CI50 inhibition [11]: T (T=0.5 to <0.7)
- Synergy Score growth inhibition [11]: A3 (A3=>3)
- Synergy Score inhibition [11]: A2 (A2=1 to <3)
- CI50 growth inhibition [12]: U (U=0.7 to <1)
- CI50 inhibition [12]: U (U=0.7 to <1)
- Synergy Score growth inhibition [12]: A2 (A2=1 to <3)
- Synergy Score inhibition [12]: A1 (A1=0.0001 to <1)
- CI50 growth inhibition [13]: U (U=0.7 to <1)
- CI50 inhibition [13]: T (T=0.5 to <0.7)
- Synergy Score growth inhibition [13]: A3 (A3=>3)
- Synergy Score inhibition [13]: A2 (A2=1 to <3)
- CI50 growth inhibition [14]: U (U=0.7 to <1)
- CI50 inhibition [14]: W (W=≥1)
- Synergy Score growth inhibition [14]: A2 (A2=1 to <3)
- Synergy Score inhibition [14]: A1 (A1=0.0001 to <1)
- CI50 growth inhibition [15]: U (U=0.7 to <1)
- CI50 inhibition [15]: W (W=≥1)
- Synergy Score growth inhibition [15]: A2 (A2=1 to <3)
- Synergy Score inhibition [15]: A1 (A1=0.0001 to <1)
- CI50 growth inhibition [16]: T (T=0.5 to <0.7)
- CI50 inhibition [16]: T (T=0.5 to <0.7)
- Synergy Score growth inhibition [16]: A3 (A3=>3)
- Synergy Score inhibition [16]: A2 (A2=1 to <3)
- CI50 growth inhibition [17]: S (S=0.01 to <0.5)
- CI50 inhibition [17]: T (T=0.5 to <0.7)
- Synergy Score growth inhibition [17]: A3 (A3=>3)
- Synergy Score inhibition [17]: A2 (A2=1 to <3)
- CI50 growth inhibition [18]: S (S=0.01 to <0.5)
- CI50 inhibition [18]: U (U=0.7 to <1)
- Synergy Score growth inhibition [18]: A3 (A3=>3)
- Synergy Score inhibition [18]: A2 (A2=1 to <3)
- CI50 growth inhibition [19]: W (W=≥1)
- CI50 inhibition [19]: W (W=≥1)
- Synergy Score growth inhibition [19]: A2 (A2=1 to <3)
- Synergy Score inhibition [19]: A2 (A2=1 to <3)
- CI50 growth inhibition [20]: T (T=0.5 to <0.7)
- CI50 inhibition [20]: T (T=0.5 to <0.7)
- Synergy Score growth inhibition [20]: A3 (A3=>3)
- Synergy Score inhibition [20]: A2 (A2=1 to <3)
- Synergy Score growth inhibition [21]: A1 (A1=0.0001 to <1)
- Synergy Score inhibition [21]: A1 (A1=0.0001 to <1)

SMILES: CC(C)C[C@H](NC(=O)[C@H](Cc1ccccc1)NC(=O)c1cnccn1)B(O)O [bortezomib, [(1R)-3-methyl-1-({(2S)-3-phenyl-2-[(pyrazin-2-ylcarbonyl)amino]propanoyl}amino)butyl]boronic acid]
- CI50 growth inhibition [1]: U (U=0.7 to <1)
- CI50 inhibition [1]: U (U=0.7 to <1)
- CI50 growth inhibition [2]: U (U=0.7 to <1)
- CI50 inhibition [2]: W (W=≥1)
- CI50 growth inhibition [3]: U (U=0.7 to <1)
- CI50 inhibition [3]: T (T=0.5 to <0.7)
- CI50 growth inhibition [4]: U (U=0.7 to <1)
- CI50 inhibition [4]: U (U=0.7 to <1)
- CI50 growth inhibition [5]: U (U=0.7 to <1)
- CI50 inhibition [5]: U (U=0.7 to <1)
- CI50 growth inhibition [6]: T (T=0.5 to <0.7)
- CI50 inhibition [6]: U (U=0.7 to <1)
- CI50 growth inhibition [7]: U (U=0.7 to <1)
- CI50 inhibition [7]: U (U=0.7 to <1)
- CI50 inhibition [8]: W (W=≥1)
- CI50 growth inhibition [9]: W (W=≥1)
- CI50 growth inhibition [10]: U (U=0.7 to <1)
- CI50 inhibition [10]: U (U=0.7 to <1)
- CI50 growth inhibition [11]: U (U=0.7 to <1)
- CI50 inhibition [11]: U (U=0.7 to <1)
- CI50 growth inhibition [12]: U (U=0.7 to <1)
- CI50 inhibition [12]: U (U=0.7 to <1)
- CI50 growth inhibition [13]: U (U=0.7 to <1)
- CI50 inhibition [13]: W (W=≥1)
- CI50 growth inhibition [14]: U (U=0.7 to <1)
- CI50 inhibition [14]: U (U=0.7 to <1)
- CI50 growth inhibition [15]: U (U=0.7 to <1)
- CI50 inhibition [15]: W (W=≥1)
- CI50 growth inhibition [16]: U (U=0.7 to <1)
- CI50 inhibition [16]: U (U=0.7 to <1)
- CI50 growth inhibition [17]: U (U=0.7 to <1)
- CI50 inhibition [17]: U (U=0.7 to <1)
- CI50 growth inhibition [18]: U (U=0.7 to <1)
- CI50 inhibition [18]: U (U=0.7 to <1)
- CI50 growth inhibition [19]: U (U=0.7 to <1)
- CI50 inhibition [19]: W (W=≥1)
- CI50 growth inhibition [20]: U (U=0.7 to <1)
- CI50 inhibition [20]: U (U=0.7 to <1)
- CI50 growth inhibition [21]: W (W=≥1)
- CI50 inhibition [21]: W (W=≥1)
